Each structure is given as a SMILES string.

Series [1] in a line: Optical properties of NIR fluorophores in 100% serum, pH 7.4. The class given is physicochemical.
Series [2] in a line: Stability in warm serum, 24 h, 37°C. As to conditions: 100% serum, pH 7.4, 24 h. The class given is in vitro ADME.
The next series deals with bovine serum albumin (Bos taurus, UniProt P02769). Briefly: Serum protein binding by gel filtration chromatography. As to conditions: GFC after incubation in bovine serum albumin solution at 37°C for 4 h. Format: in vitro ADME. (In general: SEC sorts molecules by how far they enter the pores of the column.)
Chain of bovine serum albumin (P02769 25-607): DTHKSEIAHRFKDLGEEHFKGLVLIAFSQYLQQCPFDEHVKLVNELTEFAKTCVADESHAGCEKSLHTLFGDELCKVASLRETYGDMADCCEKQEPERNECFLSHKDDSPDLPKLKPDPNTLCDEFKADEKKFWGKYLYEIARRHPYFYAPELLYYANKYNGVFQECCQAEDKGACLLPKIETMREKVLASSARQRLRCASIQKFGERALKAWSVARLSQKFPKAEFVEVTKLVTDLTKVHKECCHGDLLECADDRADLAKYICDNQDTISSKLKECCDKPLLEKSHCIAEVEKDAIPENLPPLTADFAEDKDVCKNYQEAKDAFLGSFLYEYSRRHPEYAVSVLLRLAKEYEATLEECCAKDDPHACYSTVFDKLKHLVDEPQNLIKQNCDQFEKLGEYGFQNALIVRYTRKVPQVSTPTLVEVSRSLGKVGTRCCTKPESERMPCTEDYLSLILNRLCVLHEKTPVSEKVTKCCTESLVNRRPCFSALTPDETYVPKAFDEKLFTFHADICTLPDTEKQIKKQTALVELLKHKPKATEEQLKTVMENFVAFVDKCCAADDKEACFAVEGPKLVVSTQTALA
On the set-up of series [3]: species or system Sprague-Dawley rat. As to conditions: rat, in vivo, iv.
For series [4] the following is noted: in serum; cited from earlier work.
For series [5] the following is noted: conventional NIR fluorophores; cited from earlier work.

In the case of `CC1(C)C(/C=C/C(=C/C=C2/N(CCC[N+](C)(C)C)c3ccc(S(=O)(=O)[O-])cc3C2(C)C)c2ccc(CCC(=O)[O-])cc2)=[N+](CCC[N+](C)(C)C)c2ccc(S(=O)(=O)[O-])cc21` [ZW700-1c], in series [1], the “Absorbance Maximum” value turned out to be 646 nm, the “Emission Maximum” value is listed as 663 nm, the “Extinction Coefficient” value is recorded as 199,000 M^−1cm^−1 and the “Quantum Yield” value is 19.5%. Further, in series [1], the “Stokes Shift” value stood at 17 nm. Also, the “Stability (%) at 24 h, 37°C” value in series [2] stood at 99%.

Consider `CC1(C)C(/C=C/C=C/C=C/C=C2\N(CCCCS(=O)(=O)[O-])c3ccc4ccccc4c3C2(C)C)=[N+](CCCCS(=O)(=O)[O-])c2ccc3ccccc3c21.[Na+]` [ICG], for which, on bovine serum albumin, the Serum protein binding result is “significant serum protein binding”. The “clearance route seen by dual-channel imaging” value in series [3] is “extracted from blood by the liver and excreted into bile”. Further, in series [4], the “molar extinction coefficient (ε)” value is listed as 121,000 M^−1cm^−1 and the “quantum yield (QY)” value was 9.3%.

As to `CN(C)c1ccc2nc3ccc(=[N+](C)C)cc-3sc2c1` [Methylene Blue], in series [1], the “Absorbance Maximum” value amounted to 665 nm, the “Emission Maximum” value is listed as 685 nm, the “Extinction Coefficient” value is listed as 71,200 M^−1cm^−1 and the “Quantum Yield” value was 3.8%. The “Stokes Shift” value in series [1] worked out at 20 nm. In addition, the “Stability (%) at 24 h, 37°C” value in series [2] is 99%.

In general, LogD refers to lipophilicity at a set pH, counting ionised and neutral species. On to `CC1(C)C(=CC=C2CCCC(C=CC3=[N+](CCCCCC(=O)[O-])c4ccc(S(=O)(=O)[O-])cc4C3(C)C)=C2Oc2ccc(S(=O)(=O)[O-])cc2)N(CCCCS(=O)(=O)[O-])c2ccc(S(=O)(=O)[O-])cc21.[Na+].[Na+].[Na+].[Na+]` [IRDye 800CW], for which the “LogD at pH 7.4” value in series [5] was 2.51.

The values are drawn from PMC4684479 (Molecular imaging and biology : MIB : the official …, 2016).
